The text below walks through data of PMC3714011 (Journal of medicinal chemistry, 2013).

Data set [1] relates to HDFa. Put plainly: [3H]-thymidine incorporation assay, HDFa. To be noted: Homo sapiens, read-out: Inhibition of Cell Proliferation (EC50, μM) HDFa. The class given is cell-based. (In general: Dividing cells build labelled thymidine or BrdU into new DNA.)
Data set [2] deals with T1, HsMetAP1 (Homo sapiens, UniProt P53582). Briefly: ProIP-coupled MetAP activity assay, HsMetAP1 with Co. The class given is biochemical.
Data set [3] concerns iMet processing of 14-3-3γ in HUVEC. The conditions noted are these: for signal of unprocessed 14-3-3γ in the presence of cycloheximide: HUVEC treated with cycloheximide prior to MetAP inhibitor.
The target in data set [4] is HsMetAP2 (Homo sapiens, UniProt P50579). Briefly: ProIP-coupled MetAP activity assay, HsMetAP2 with Mn. It is filed as biochemical.
HsMetAP2, sequence (P50579 whole entry): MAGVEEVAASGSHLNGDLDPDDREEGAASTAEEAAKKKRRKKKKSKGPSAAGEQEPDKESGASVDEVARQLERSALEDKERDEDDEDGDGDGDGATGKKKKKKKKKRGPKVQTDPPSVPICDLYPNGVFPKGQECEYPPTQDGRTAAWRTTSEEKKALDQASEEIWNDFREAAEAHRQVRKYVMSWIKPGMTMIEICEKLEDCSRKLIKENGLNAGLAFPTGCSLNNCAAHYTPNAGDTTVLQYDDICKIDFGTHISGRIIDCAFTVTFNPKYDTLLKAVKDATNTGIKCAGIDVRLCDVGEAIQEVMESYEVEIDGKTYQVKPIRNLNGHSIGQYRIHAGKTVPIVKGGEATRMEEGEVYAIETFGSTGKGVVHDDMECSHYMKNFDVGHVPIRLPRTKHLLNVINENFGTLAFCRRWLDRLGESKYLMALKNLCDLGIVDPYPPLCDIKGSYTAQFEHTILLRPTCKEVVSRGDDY
Data set [5] concerns initiator methionine of BTF3L4 in HEK293T cells. Briefly: Initiator methionine release assay, BTF3L4-3×Flag in HEK293T cells. It is filed as cell-based, human. To be noted: 10 μM 11j, 100 nM TNP-470.
Data set [6] has as its system initiator methionine of TXNL1 in HEK293T cells. Briefly: Initiator methionine release assay, TXNL1-3×Flag in HEK293T cells. It is filed as cell-based, human. The conditions noted are these: 10 μM.
For data set [7] the following is noted: patients with advanced cancer; cited from earlier work.
Data set [8] deals with iMet processing of 14-3-3γ in HDFa cells. The conditions noted are these: 3–250 μM, 24 hours.
Data set [9] relates to Escherichia coli. To be noted: at concentrations up to 1 mM; ref 46b; cited from earlier work.
In data set [10] the target is T1, HsMetAP1. Briefly: LAO and HRP-coupled MetAP activity assay, HsMetAP1 with Zn. It is filed as biochemical. The conditions noted are these: concentrations up to 250 μM, Figure S3E.
The test system of data set [11] is Jurkat E6-1, HeLa, HEK293T, PC-3 and MCF-7. Put plainly: iMet processing of 14-3-3γ by immunoblot in five neoplastic cell lines. It is filed as cell-based, human. To be noted: all five neoplastic cell lines, 100 nM, 24 hours.
A short description of data set [12]: Solubility observed at highest doses tested in the proliferation assay. The conditions noted are these: 90 μM for 2, 40 μM for 3 and 40 μM for 4.

SMILES strings stand for the structures.

Usually inhibition stands for the drop in the measured response relative to a control, in per cent. Consider `c1ccc(-c2ccccn2)nc1` [2,2′-Bipyridine, 2,2′-bipyridine], for which the EC50 in data set [1] lay in the range of 10 to 30 µM. Also, in data set [2] (read-out: inhibition of the activity of HsMetAP1 in the absence of Co(II)), the inhibition at 100 µM was ≤ 30%. Moreover, the “ability to block the NME of 14-3-3γ in cells, lower than 11j” value in data set [3] (Figure 6B) is “at least 30 times”.

For the compound `Clc1nc(-c2ccccn2)nc2ccccc12` [7a, 4-Chloro-2-(pyridin-2-yl)quinazoline], the “inhibitory activity against HsMetAP1 in the presence of Mn(II) / absence of Co(II)” value in data set [2] (10 μM Mn(II)) is “completely lost the inhibitory activity”.

Usually IC50 stands for the concentration that gives 50% inhibition. A high value points to weaker potency. As for `c1ccc(CCNc2nc(-c3ccccn3)nc3ccccc23)cc1` [10a, N-Phenethyl-2-(pyridin-2-yl)quinazolin-4-amine], in data set [2], the half-inhibitory concentration (IC50) turned out to be 24 µM. Further, the “inhibitory activity against HsMetAP1 in the presence of Mn(II) / absence of Co(II)” value in data set [2] (10 μM Mn(II)) is listed as “could completely inhibit HsMetAP1”.

Take `c1ccc(NCCNc2nc(-c3ccccn3)nc3ccccc23)cc1` [10b, N^1-Phenyl-N^2-[2-(pyridin-2-yl)quinazolin-4-yl]ethane-1,2-diamine]: in data set [2] (10 μM Mn(II)), the “inhibitory activity against HsMetAP1 in the presence of Mn(II) / absence of Co(II)” value is on record as “completely lost the inhibitory activity”.

On to `c1ccc(-c2nc(NCCc3c[nH]c4ccccc34)c3ccccc3n2)nc1` [10c, N-[2-(1H-indol-3-yl)ethyl]-2-(pyridin-2-yl)quinazolin-4-amine], for which the EC50 was > 300 µM in data set [4]; 0.12 ± 0.02 µM in data set [2] (EC50 (μM) HsMetAP1 Co(II), Table 2, 10 μM Co(II), mean ± SD of at least three determinations); 5.3 ± 0.7 µM in [2] (EC50 (μM) HsMetAP1 Mn(II), Table 2, 10 μM Mn(II), mean ± SD). Further, in data set [2], the “increase in potency against HsMetAP1 with Co(II) compared with 10a” value was found to be 7.8 fold. Besides, in data set [2] (Mn(II)), the “increase in potency against HsMetAP1 with Mn(II) compared with 10a” value came out at 4.5 fold.

In the case of `O=C(O)COc1ccc(N2CCN(c3nc(-c4ccccn4)nc4ccccc34)CC2)cc1` [11e, 2-(4-{4-[2-(Pyridin-2-yl)quinazolin-4-yl]piperazin-1-yl}phenoxy)acetic acid], in data set [2] (EC50 (μM) HsMetAP1 Mn(II), Table 3, 10 μM Mn(II), mean ± SD), the EC50 is > 100 µM.

With `COc1ccc(N2CCN(c3nc(-c4ccccn4)nc4ccccc34)CC2)cc1` [11j, 4-[4-(4-Methoxyphenyl)piperazin-1-yl]-2-(pyridin-2-yl)quinazoline], in data set [5], the “iMet retention of BTF3L4-3×Flag” value is “no appreciable increase”. In addition, the “signal of unprocessed 14-3-3γ in the presence of cycloheximide” value (“signal of unprocessed 14-3-3γ” below) in data set [3] was “none of the MetAP inhibitors could generate a detectable signal”. Further, the “level of unprocessed 14-3-3γ over time” value in data set [3] (HUVEC, 10 μM, 1–7 hours) is listed as “increased in a time-dependent manner”. Moreover, in [6], the “increase of the release of [35S]-Met from TXNL1-3×Flag, more than the vehicle” value is listed as 40 ± 17%.

On to `CO[C@@H](C(=O)N[C@H]1CC[C@@H](OC(=O)C2CCCCC2)CNC1=O)[C@H](O)[C@@H](O)[C@H](O)/C=C/C(C)(C)C` [LAF-389], for which the “reason for termination of the clinical study” value in data set [7] is “cardiovascular toxicity”.

For the compound `CO[C@@H]1[C@H](OC(=O)NC(=O)CCl)CC[C@]2(CO2)[C@H]1[C@@]1(C)O[C@@H]1CC=C(C)C` [TNP-470], the “iMet retention of BTF3L4-3×Flag” value in [5] is “no appreciable increase”. Also, the “signal of unprocessed 14-3-3γ” value in [3] is “none of the MetAP inhibitors could generate a detectable signal”.

For the compound `c1ccc2[nH]c(-c3cscn3)nc2c1` [Thiabendazole, 4-(1H-1,3-benzodiazol-2-yl)-1,3-thiazole], the “effect on the NME of 14-3-3γ” value was “did not affect” in [8] and “did not affect” in data set [3] (HUVEC, 3–250 μM, 24 hours). In addition, the “activity against the growth of Escherichia coli” value in [9] is “inactive”. In [10], the “inhibition of HsMetAP1 in the absence of Co(II)” value is reported as “failed to inhibit”.

For the compound `CCCCCCCCCCCCCC(=O)O[C@H]1CC[C@H](NC(=O)[C@H](OC)[C@H](O)[C@@H](O)[C@H](O)/C=C/C(C)C)C(=O)NC1` [bengamide A], the “increase in ratio of unprocessed versus total 14-3-3γ” value in data set [11] is “no more than 2.6 fold”. Besides, the “signal of unprocessed 14-3-3γ” value in data set [3] is “none of the MetAP inhibitors could generate a detectable signal”. Besides, in data set [3] (HUVEC, 24-hour treatment, 100 nM, Figure 2A), the “increase in ratio of unprocessed 14-3-3γ versus total 14-3-3γ” value turned out to be 8 fold. For the same compound, in data set [3] (HUVEC, data not shown), the “concentration of maximal response of accumulation of unprocessed 14-3-3γ” value is listed as “around 10 nM”.

For `Cc1nc(-c2ccccn2)nc(NCCc2ccccc2)c1Cl` [compound 2, 5-chloro-6-methyl-N-(2-phenylethyl)-2-pyridin-2-ylpyrimidine-4-amine], the “increase in ratio when TNP-470 was supplemented” value in data set [3] (HUVEC treated with 30 μM compound 2 plus TNP-470) was 3.5 fold.

Regarding `Cc1nc(-c2ccc(Cl)cn2)nc(NC[C@@H](NCCCCc2ccccc2)c2ccccc2)c1Cl` [compound 3], the “solubility at highest doses tested” value in data set [12] is “No solubility problems”. In data set [3] (10 μM, most cells floating after 24 hours), the “cytotoxicity” value was “severe cytotoxicity”.

Take `Cc1nc(-c2ccccn2)nc(NCCNc2ccc(C(F)(F)F)cn2)c1Cl` [compound 4]: in data set [12], the “solubility at highest doses tested” value is listed as “No solubility problems”.

For `c1ccc(-c2nc(N3CCOCC3)c3ccccc3n2)nc1` [compound 17], the “increase in potency against HsMetAP1 with Co(II) compared with 10a” value in data set [2] amounted to 19 fold.
